Reference: doi:10.1101/2020.05.05.078071v1 (biorxiv, 2020)

How the values were obtained:
rNaV1.4 [1] = molecular target: rNaV1.4 (Rattus norvegicus, UniProt P15390, F1579A); assay: whole-cell patch clamp, three pulse train; type: cell-based
rNaV1.4 [2] = molecular target: rNaV1.4 (Rattus norvegicus, UniProt P15390); assay: whole-cell patch clamp, three pulse train; type: cell-based
rNaV1.4 (Rattus norvegicus, UniProt P15390), sequence (P15390 whole entry): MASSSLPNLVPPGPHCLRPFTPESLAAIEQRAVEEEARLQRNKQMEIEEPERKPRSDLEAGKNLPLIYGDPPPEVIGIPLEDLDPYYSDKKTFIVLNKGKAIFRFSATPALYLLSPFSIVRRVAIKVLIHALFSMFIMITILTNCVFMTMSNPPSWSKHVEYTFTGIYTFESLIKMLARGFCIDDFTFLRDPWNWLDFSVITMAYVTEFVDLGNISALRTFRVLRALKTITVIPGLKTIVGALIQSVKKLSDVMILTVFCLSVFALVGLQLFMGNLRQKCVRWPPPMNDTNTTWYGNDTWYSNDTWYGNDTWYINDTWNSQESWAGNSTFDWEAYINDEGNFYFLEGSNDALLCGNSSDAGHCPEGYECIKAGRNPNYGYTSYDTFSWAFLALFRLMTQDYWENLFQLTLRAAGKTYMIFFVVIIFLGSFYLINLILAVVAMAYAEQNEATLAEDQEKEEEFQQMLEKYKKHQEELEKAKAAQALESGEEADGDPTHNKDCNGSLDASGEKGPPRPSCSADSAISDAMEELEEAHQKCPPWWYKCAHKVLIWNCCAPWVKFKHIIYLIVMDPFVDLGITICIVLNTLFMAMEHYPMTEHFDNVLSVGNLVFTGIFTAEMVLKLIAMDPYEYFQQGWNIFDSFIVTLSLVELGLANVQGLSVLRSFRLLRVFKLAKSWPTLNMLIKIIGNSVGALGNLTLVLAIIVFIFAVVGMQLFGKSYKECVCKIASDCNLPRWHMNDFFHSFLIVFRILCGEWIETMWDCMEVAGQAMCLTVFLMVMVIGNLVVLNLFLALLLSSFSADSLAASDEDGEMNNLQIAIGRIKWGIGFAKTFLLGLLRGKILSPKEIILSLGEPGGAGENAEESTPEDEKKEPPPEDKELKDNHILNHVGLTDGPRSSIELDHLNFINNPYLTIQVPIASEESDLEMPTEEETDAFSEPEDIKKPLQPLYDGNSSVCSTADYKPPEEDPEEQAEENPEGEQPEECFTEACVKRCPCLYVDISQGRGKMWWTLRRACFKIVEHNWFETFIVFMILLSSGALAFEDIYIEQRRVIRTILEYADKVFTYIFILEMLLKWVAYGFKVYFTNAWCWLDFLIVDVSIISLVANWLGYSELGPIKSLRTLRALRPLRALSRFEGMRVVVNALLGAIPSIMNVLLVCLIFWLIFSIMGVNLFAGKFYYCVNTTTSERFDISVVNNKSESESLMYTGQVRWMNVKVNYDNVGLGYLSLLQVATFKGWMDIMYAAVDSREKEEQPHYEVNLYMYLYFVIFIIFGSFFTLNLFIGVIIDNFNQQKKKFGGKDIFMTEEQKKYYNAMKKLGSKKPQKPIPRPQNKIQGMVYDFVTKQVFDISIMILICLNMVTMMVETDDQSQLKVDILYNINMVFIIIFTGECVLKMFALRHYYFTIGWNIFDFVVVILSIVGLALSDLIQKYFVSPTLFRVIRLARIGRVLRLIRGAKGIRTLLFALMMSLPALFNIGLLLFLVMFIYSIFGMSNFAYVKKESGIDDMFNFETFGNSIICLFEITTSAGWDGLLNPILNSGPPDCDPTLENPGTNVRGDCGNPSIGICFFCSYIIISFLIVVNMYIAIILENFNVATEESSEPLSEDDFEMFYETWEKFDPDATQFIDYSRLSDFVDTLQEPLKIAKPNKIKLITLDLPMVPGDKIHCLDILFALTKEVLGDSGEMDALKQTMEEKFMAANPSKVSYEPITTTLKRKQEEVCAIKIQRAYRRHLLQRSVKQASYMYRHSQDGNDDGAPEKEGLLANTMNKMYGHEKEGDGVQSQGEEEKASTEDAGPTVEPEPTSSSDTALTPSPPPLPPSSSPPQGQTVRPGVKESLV

rNaV1.4 (Rattus norvegicus, UniProt P15390, F1579A), sequence (P15390 whole entry F1579A): as the sequence (P15390 whole entry) above, with F1579A counted along it

IC50 (rNaV1.4 [1]): 114 ± 20 µM | IC50 (rNaV1.4 [2]): 3.98 ± 1.32 µM
SMILES: Nc1nc2ccc(OC(F)(F)F)cc2s1 [riluzole]
